Laboratory results reported in ChEMBL document CHEMBL3593175, “Bicyclic [3.3.0]-Octahydrocyclopenta[c]pyrrolo Antagonists of Retinol Binding Protein 4: Potential Treatment of Atrophic Age-Related Macular Degeneration and Stargardt Disease” (J Med Chem, 2015).

Tests used:
[1] = molecular target: T1, Retinol-binding protein 4 (Homo sapiens, UniProt P02753); assay: Inhibition of retinol-induced interaction of bacterially expressed MBP-tagged RBP4 (unknown origin) with Eu3+ cryptate labeled TTR by HTRF assay
[2] = molecular target: T1, Retinol-binding protein 4; assay: Displacement of [3H]-retinol from RBP4 (unknown origin) by scintillation proximity assay
[3] = Metabolic stability in rat liver microsomes assessed as compound remaining at 10 uM after 30 mins; assay type: ADME; details: read-out: Stability
[4] = Metabolic stability in human liver microsomes assessed as compound remaining at 10 uM after 30 mins; assay type: ADME; details: read-out: Stability

Row | SMILES | IC50 [1] | IC50 [2] | remaining at 0.5 h, 10 µM [3] | remaining at 0.5 h, 10 µM [4]
1 | Cc1cc(C(=O)O)nc(N2C[C@H]3C[C@@H](c4cnccc4C(F)(F)F)C[C@H]3C2)n1 | 821 nM | 51.8 nM |  | 
2 | Cc1cc(C(=O)O)nc(N2C[C@H]3C[C@@H](c4cccnc4C(F)(F)F)C[C@H]3C2)n1 | 719 nM | 31.1 nM |  | 
3 | COC(=O)c1cc(C)nc(N2CCC(c3ccccc3C(F)(F)F)CC2)n1 | 132 nM | 4.1 nM |  | 
4 | Cc1cc(C(=O)O)nc(N2CCC(c3ccccc3C(F)(F)F)CC2)n1 | 188 nM | 35.3 nM | 96% | 68%
5 | COC(=O)c1cc(C)nc(N2CCN(c3ccccc3C(F)(F)F)CC2)n1 | 1400 nM | 9.7 nM | 0% | 0%
6 | Cc1cc(C(=O)O)nc(N2CCN(c3ccccc3C(F)(F)F)CC2)n1 | 511 nM | 89.5 nM | 63% | 18%
